Among the data in patent publication US20250388583A1, “COMPOUNDS AND METHOD FOR PKMYT1 INHIBITION” (Engine Biosciences Pte. Ltd., priority 2022, published 2025) are IC50 values, retold here.

The target in one experiment is PKMYT1 (Homo sapiens (Human), UniProt Q99640). The experiment can be described thus: In vitro assay: kinase binding to immobilized ligand, captured kinase measured by qPCR. In general terms: In qPCR the cycle at which signal appears reflects the starting amount.
In another experiment the target is LCK (Homo sapiens (Human), UniProt P06239). The experiment is described as above. From the text:
Example B-1: In Vitro Assay
Compounds that bind the kinase active site and directly (sterically) or indirectly (allosterically) prevent kinase binding to an immobilized ligand and reduce the amount of kinase captured on the solid support. Screening “hits” were identified by measuring the amount of kinase captured in test versus control samples by using a quantitative, precise and ultra-sensitive qPCR method that detect the associated DNA label. In a similar manner, dissociation constants (Kd's) for test compound-kinase interactions were calculated by measuring the amount of kinase captured on the solid support as a function of the test compound concentration.

Chain of PKMYT1 (Q99640 whole entry): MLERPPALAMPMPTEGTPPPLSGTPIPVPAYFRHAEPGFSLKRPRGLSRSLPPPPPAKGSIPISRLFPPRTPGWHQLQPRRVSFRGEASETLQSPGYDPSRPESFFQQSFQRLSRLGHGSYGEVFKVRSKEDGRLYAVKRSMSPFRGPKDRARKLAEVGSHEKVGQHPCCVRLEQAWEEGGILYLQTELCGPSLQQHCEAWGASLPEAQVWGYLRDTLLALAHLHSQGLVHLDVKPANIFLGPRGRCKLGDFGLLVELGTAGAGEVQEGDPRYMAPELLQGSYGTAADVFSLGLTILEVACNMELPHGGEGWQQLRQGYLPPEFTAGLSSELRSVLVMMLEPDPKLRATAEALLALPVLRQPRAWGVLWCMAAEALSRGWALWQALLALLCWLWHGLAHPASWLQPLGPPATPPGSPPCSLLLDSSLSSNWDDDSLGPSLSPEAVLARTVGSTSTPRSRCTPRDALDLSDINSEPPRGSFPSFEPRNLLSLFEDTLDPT
Chain of LCK (P06239 whole entry): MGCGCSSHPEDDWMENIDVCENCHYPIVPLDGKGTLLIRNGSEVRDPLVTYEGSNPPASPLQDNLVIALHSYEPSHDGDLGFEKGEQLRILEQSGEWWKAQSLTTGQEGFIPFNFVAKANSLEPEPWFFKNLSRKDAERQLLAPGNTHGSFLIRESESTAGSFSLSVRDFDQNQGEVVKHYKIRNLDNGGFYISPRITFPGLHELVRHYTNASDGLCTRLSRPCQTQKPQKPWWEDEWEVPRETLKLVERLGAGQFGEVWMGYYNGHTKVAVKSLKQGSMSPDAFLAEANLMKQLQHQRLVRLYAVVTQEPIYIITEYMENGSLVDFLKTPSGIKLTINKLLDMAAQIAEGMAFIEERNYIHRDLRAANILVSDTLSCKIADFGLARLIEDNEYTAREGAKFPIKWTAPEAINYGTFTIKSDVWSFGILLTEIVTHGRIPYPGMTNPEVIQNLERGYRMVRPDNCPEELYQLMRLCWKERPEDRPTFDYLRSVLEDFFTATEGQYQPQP

In the case of `Cc1ccc(O)c(C)c1-n1c(N)c(C(N)=O)c2cnc(CCc3cscn3)c(F)c21` [Compound 638], the concentration for half-maximal inhibition (IC50) at PKMYT1 and on LCK was less than 50 nM in each case.
For the compound `CCc1c(O)cc(F)c(C)c1-n1c(N)c(C(N)=O)c2cnc(C)nc21` [Compound 659], the IC50 on PKMYT1 and on LCK was less than 50 nM in each case.
In the case of `COc1cnc(C)c(-n2c(N)c(C(N)=O)c3cc(Cl)cnc32)c1C` [Compound 542, 2-amino-5-chloro-1-(5-methoxy-2,4-dimethylpyridin-3-yl)-1H-pyrrolo[2,3-b]pyridine-3-carboxamide], the values for the IC50 at PKMYT1 and on LCK were more than 1000 nM and 100 to 1000 nM, respectively.
On to `Cc1ccc(O)c(C)c1-n1c(N)c(C(N)=O)c2cnc(CO)nc21` [Compound 592, 6-amino-7-(3-hydroxy-2,6-dimethylphenyl)-2-(hydroxymethyl)-7H-pyrrolo[2,3-d]pyrimidine-5-carboxamide], for which the IC50 (commonly the concentration at which inhibition is half-maximal) at PKMYT1 was in the range of 50 to 100 nM; on LCK it was 100 to 1000 nM.
Taken in the same sequence, the figures for `CCc1c(O)cc(F)c(C)c1-n1c(N)c(C(N)=O)c2cnc(C3CC3)c(C#N)c21` [Compound 673, 2-amino-7-cyano-6-cyclopropyl-1-(2-ethyl-5-fluoro-3-hydroxy-6-methyl-phenyl)pyrrolo[3,2-c]pyridine-3-carboxamide] were less than 50 nM and less than 50 nM.
Taken in the same sequence, the figures for `Cc1ncc2c(C(N)=O)c(N)n(-c3c(C)cc(F)c(O)c3C)c2n1` [Compound 602, 6-amino-7-(4-fluoro-3-hydroxy-2,6-dimethyl-phenyl)-2-methyl-pyrrolo[2,3-d]pyrimidine-5-carboxamide] were less than 50 nM and 100 to 1000 nM.
For `Cc1ccc(O)c(C)c1-n1c(N)c(C(N)=O)c2cnc(C3CC3)c(F)c21` [Compound 605, 2-amino-6-cyclopropyl-7-fluoro-1-(3-hydroxy-2,6-dimethylphenyl)-1H-pyrrolo[3,2-c]pyridine-3-carboxamide] the same measures were less than 50 nM and less than 50 nM.
Take `Cc1ncc2c(C(N)=O)c(N)n(-c3c(C)cc4[nH]c(=O)oc4c3C)c2n1` [Compound 680]: the IC50 at PKMYT1 and on LCK was more than 1000 nM each time.
On to `Cc1ncc2c(C(N)=O)c(N)n(-c3c(C)ccc(O)c3C)c2n1` (single isomer, unassigned) [Compound 577, 6-amino-7-(3-hydroxy-2,6-dimethyl-phenyl)-2-methyl-pyrrolo[2,3-d]pyrimidine-5-carboxamide], for which, at LCK, the half-maximal inhibitory concentration (IC50) is less than 50 nM.
Still for that read-out and setting: the result for `Cc1ncc2c(C(N)=O)c(N)n(-c3c(C)ccc(O)c3C)c2n1` (single isomer, unassigned) [Compound 578, 6-amino-7-(3-hydroxy-2,6-dimethyl-phenyl)-2-methyl-pyrrolo[2,3-d]pyrimidine-5-carboxamide] reads more than 1000 nM.
As to `Cc1cc(F)c(O)c(C)c1-n1c(N)c(C(N)=O)c2cc(Cl)cnc21` [Compound 603, 2-amino-5-chloro-1-(4-fluoro-3-hydroxy-2,6-dimethyl-phenyl)pyrrolo[2,3-b]pyridine-3-carboxamide], the IC50 on PKMYT1 and on LCK was less than 50 nM in each case.
On to `Cc1cnc2c(c1)c(C(N)=O)c(N)n2-c1c(C)ccc(O)c1N` [Compound 556, 2-amino-1-(2-amino-3-hydroxy-6-methylphenyl)-5-methyl-1H-pyrrolo[2,3-b]pyridine-3-carboxamide], for which the IC50 on PKMYT1 and on LCK was less than 50 nM each time.
`Cc1cnc2c(c1)c(C(N)=O)c(N)n2-c1c(C)ncc(O)c1C` [Compound 561, 2-Amino-1-(5-hydroxy-2,4-dimethyl-3-pyridyl)-5-methyl-pyrrolo[2,3-b]pyridine-3-carboxamide]: the half-inhibitory concentration (IC50) at PKMYT1 lay within 50 to 100 nM; on LCK, 100 to 1000 nM.
The compound `Cc1c(O)cc(F)c(C)c1-n1c(N)c(C(N)=O)c2cnc(C3CC3)c(F)c21` (atropisomer, axis not shown) [Compound 655] gave an IC50 on LCK of less than 50 nM.
Still for that read-out and setting: in the case of `Cc1cc2c(C(N)=O)c(N)n(-c3c(C)ncc(O)c3C)c2nc1C` [Compound 560, 2-amino-1-(5-hydroxy-2,4-dimethylpyridin-3-yl)-5,6-dimethyl-1H-pyrrolo[2,3-b]pyridine-3-carboxamide] it was 100 to 1000 nM.
As to `Cc1cc2ccoc2c(C)c1-n1c(N)c(C(N)=O)c2cc(Cl)cnc21` [Compound 544, 2-amino-5-chloro-1-(5,7-dimethylbenzofuran-6-yl)-1H-pyrrolo[2,3-b]pyridine-3-carboxamide], the values for the IC50 at PKMYT1 and on LCK were more than 1000 nM and 100 to 1000 nM, respectively.
For `Cc1c(O)cc(F)c(C)c1-n1c(N)c(C(N)=O)c2cc(Cl)cnc21` (single isomer, unassigned) [Compound 576, 2-amino-5-chloro-1-(3-fluoro-5-hydroxy-2,6-dimethylphenyl)-1H-pyrrolo[2,3-b]pyridine-3-carboxamide] the same measures were 100 to 1000 nM and 100 to 1000 nM.
Taken in the same sequence, the figures for `Cc1c(O)cc(F)c(C)c1-n1c(N)c(C(N)=O)c2cnc(C3CC3)c(C#N)c21` [Compound 663, 2-amino-7-cyano-6-cyclopropyl-1-(3-fluoro-5-hydroxy-2,6-dimethyl-phenyl)pyrrolo[3,2-c]pyridine-3-carboxamide] were less than 50 nM and less than 50 nM.
As for `Cc1nc(C)c2c(C(N)=O)c(N)n(-c3c(C)ccc(O)c3C)c2n1` [Compound 566, 6-amino-7-(3-hydroxy-2,6-dimethylphenyl)-2,4-dimethyl-7H-pyrrolo[2,3-d]pyrimidine-5-carboxamide], the IC50 on PKMYT1 was less than 50 nM; at LCK, 100 to 1000 nM.
Taken in the same sequence, the figures for `Cc1ncc2c(C(N)=O)c(N)n(-c3c(C)c(O)cc(F)c3C)c2n1` (atropisomer, axis not shown) [Compound 607, 6-amino-7-(3-fluoro-5-hydroxy-2,6-dimethyl-phenyl)-2-methyl-pyrrolo[2,3-d]pyrimidine-5-carboxamide] were more than 1000 nM and more than 1000 nM.
In the case of `Cc1c(O)cc(F)c(C)c1-n1c(N)c(C(N)=O)c2cncc(F)c21` [Compound 599, 2-amino-7-fluoro-1-(3-fluoro-5-hydroxy-2,6-dimethylphenyl)-1H-pyrrolo[3,2-c]pyridine-3-carboxamide], the IC50 on PKMYT1 and at LCK was less than 50 nM each time.
As for `Cc1ccc(O)c(C)c1-n1c(N)c(C(N)=O)c2cnc(-c3ccc(C(C)(C)C)cc3)nc21` [Compound 600, 6-amino-2-(4-(tert-butyl)phenyl)-7-(3-hydroxy-2,6-dimethylphenyl)-7H-pyrrolo[2,3-d]pyrimidine-5-carboxamide], the IC50 at PKMYT1 and on LCK was 100 to 1000 nM throughout.
For `Cc1cc2c(C(N)=O)c(N)n(-c3c(C)cc4c(c3C)OCC4)c2nc1C` [Compound 675], the figures for the IC50 on PKMYT1 and at LCK were more than 1000 nM and 100 to 1000 nM, respectively.
Taken in the same sequence, the figures for `CCc1ncc2c(C(N)=O)c(N)n(-c3c(C)ccc(O)c3C)c2c1F` [Compound 604, 2-amino-6-ethyl-7-fluoro-1-(3-hydroxy-2,6-dimethyl-phenyl)pyrrolo[3,2-c]pyridine-3-carboxamide] were less than 50 nM and less than 50 nM.
Regarding `Cc1ccc(O)c(C)c1-n1c(N)c(C(N)=O)c2cnc(/C=C/C3CC3)nc21` [Compound 651], the IC50 at PKMYT1 and on LCK was less than 50 nM in each case.
`Cc1ncc2c(C(N)=O)c(N)n(-c3c(C)c(O)cc(F)c3C)c2n1` (atropisomer, axis not shown) [Compound 606, 6-amino-7-(3-fluoro-5-hydroxy-2,6-dimethyl-phenyl)-2-methyl-pyrrolo[2,3-d]pyrimidine-5-carboxamide]: the IC50 on PKMYT1 and at LCK was less than 50 nM in each case.
Turning to `Cc1c(O)cc(F)c(C)c1-n1c(N)c(C(N)=O)c2cc(Cl)cnc21` [Compound 565, 2-amino-5-chloro-1-(3-fluoro-5-hydroxy-2,6-dimethylphenyl)-1H-pyrrolo[2,3-b]pyridine-3-carboxamide], the IC50 on PKMYT1 and on LCK was less than 50 nM throughout.
In the case of `Cc1ccc(O)c(C)c1-n1c(N)c(C(N)=O)c2cnc(CCc3cncs3)c(F)c21` [Compound 642], the IC50 at PKMYT1 and on LCK was less than 50 nM throughout.
With `Cc1ccc(O)c(C)c1-n1c(N)c(C(N)=O)c2cnc(CCc3nccs3)c(F)c21` [Compound 649], the IC50 on PKMYT1 and at LCK was less than 50 nM throughout.
As to `Cc1ccc(O)c(C)c1-n1c(N)c(C(N)=O)c2cncnc21` [Compound 547, 6-amino-7-(3-hydroxy-2,6-dimethylphenyl)-7H-pyrrolo [2,3-d]pyrimidine-5-carboxamide], the results for the IC50 on PKMYT1 and on LCK were less than 50 nM and 50 to 100 nM, respectively.
For `Cc1ccc(O)c(C)c1-n1c(N)c(C(N)=O)c2cnc(C3CC3)c(C#N)c21` [Compound 662], the IC50 on PKMYT1 and on LCK was less than 50 nM each time.
Turning to `Cc1ccc(O)c(C)c1-n1c(N)c(C(N)=O)c2cnc(NCCO)nc21` [Compound 559, 6-amino-7-(3-hydroxy-2,6-dimethylphenyl)-2-((2-hydroxyethyl)amino)-7H-pyrrolo[2,3-d]pyrimidine-5-carboxamide], the IC50 on PKMYT1 and on LCK was less than 50 nM each time.
Compound `Cc1ccc(O)c(C)c1-n1c(N)c(C(N)=O)c2cc3c(nc21)CCN3` [Compound 620] showed an IC50 at PKMYT1 of less than 50 nM.
At PKMYT1, `Cc1c(O)cc(F)c(C)c1-n1c(N)c(C(N)=O)c2cnc(C3CC3)c(F)c21` [Compound 623, 2-amino-6-cyclopropyl-7-fluoro-1-(3-fluoro-5-hydroxy-2,6-dimethyl-phenyl)pyrrolo[3,2-c]pyridine-3-carboxamide] returned an IC50 of less than 50 nM.
On the same count and under the same terms, the result for `Cc1ccc(O)c(C)c1-n1c(N)c(C(N)=O)c2cnc(N3CC(O)C3)nc21` [Compound 573] reads less than 50 nM; that for `Cc1ccc(O)c(C)c1-n1c(N)c(C(N)=O)c2cncc(C#N)c21` [Compound 587, 2-amino-7-cyano-1-(3-hydroxy-2,6-dimethylphenyl)-1H-pyrrolo[3,2-c]pyridine-3-carboxamide], less than 50 nM.
